The record followed here is patent publication US9073876B2, “Flap modulators” (JANSSEN PHARMACEUTICA NV, priority 2013, dated 2015).

In one experiment the target is human FLAP (Homo sapiens (Human), UniProt P20292). Put plainly: FLAP binding assay (HTRF). The note with it: human FLAP-containing membranes, HTRF format; average of two assay plates, duplicates; read-out: FLAP Binding wild type HTRF Ki. How it is done: (§1) The ability of the compounds of the present invention to treat a FLAP-mediated disease and/or disorder, or associated symptoms or complications thereof, was determined using the following procedures. Binding assay data represent the average value obtained from two different assay plates, with samples run in duplicate on each plate. Human whole blood assay data represent a single replicate on an assay plate using whole blood from at least one healthy donor.
Sequence of human FLAP (P20292 whole entry): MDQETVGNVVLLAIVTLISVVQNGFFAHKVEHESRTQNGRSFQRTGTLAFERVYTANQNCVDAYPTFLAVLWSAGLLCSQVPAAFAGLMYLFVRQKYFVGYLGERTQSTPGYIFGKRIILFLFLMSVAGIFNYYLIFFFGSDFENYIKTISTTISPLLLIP
Data are expressed as a HTRF ratio.

Experiment [1] deals with leukotriene pathway in human whole blood (LTB4 levels). Put plainly: Human whole blood assay (LTB4). The format is cell-based. The note with it: human whole blood diluted 1:1 in RPMI, stimulated with calcium ionophore A23187; single replicate. How it is done: as §1
An in vitro cellular assay was performed using human whole blood collected in heparin-containing tubes, which was used to test the ability of compounds to modulate the leukotriene pathway in human whole blood. The blood was diluted 1:1 in RPMI medium, pre-incubated for 15 min at 37° Celsius with test compounds at various concentrations, and then stimulated with calcium ionophore, A23187 (7 μg/mL), for 30 min at 37° Celsius. The samples were then centrifuged and plasma was removed. The plasma was diluted in assay buffer and LTB4 levels were measured using a commercial kit (Enzo Life Sciences). The concentration of each compound that was required for half-maximal inhibition (modulation) of recombinant enzyme activity (IC50) was calculated by a 4-parameter equation using the program GraphPad Prism (GraphPad software).

For `Nc1cnc(Oc2c(C3CCC3)ccc(-c3cnc(N)cn3)c2F)nc1` [Example 158, 2-[3-(5-Aminopyrazin-2-yl)-6-cyclobutyl-2-fluorophenoxy]pyrimidin-5-amine], the Ki on human FLAP came out at 7.8 nM. In experiment [1], the half-maximal inhibitory concentration (IC50) turned out to be 35.9 nM.

Consider `COc1cc(Oc2c(C3CCC3)ccc(-c3cnc(N)cn3)c2F)nc(N)n1` [Example 99, 4-[3-(5-Aminopyrazin-2-yl)-6-cyclobutyl-2-fluorophenoxy]-6-methoxypyrimidin-2-amine], for which the Ki at human FLAP amounted to 6 nM. Also, the 50% inhibitory concentration (IC50) in experiment [1] amounted to 40.7 nM.

Regarding `N#Cc1nccc(Oc2c(C3CCC3)ccc(-c3cnc(N)cn3)c2F)n1` [Example 234, 4-(3-(5-Aminopyrazin-2-yl)-6-cyclobutyl-2-fluorophenoxy)pyrimidine-2-carbonitrile], the Ki at human FLAP came to 1300 nM. In addition, the IC50 in experiment [1] was > 10000 nM.

Consider `Nc1cnc(-c2ccc(C3CCC3)c(Oc3ccnc(C(F)(F)F)n3)c2F)cn1` [Example 124, 5-(4-Cyclobutyl-2-fluoro-3-{[2-(trifluoromethyl)pyrimidin-4-yl]oxy}phenyl)pyrazin-2-amine], for which the Ki at human FLAP is 3 nM. The IC50 in experiment [1] stood at 119 nM.

Turning to `Nc1ncc(-c2ccc(C3CCC3)c(Oc3ccnc(N)n3)c2F)cn1` [Example 166, 4-[3-(2-Aminopyrimidin-5-yl)-6-cyclobutyl-2-fluorophenoxy]pyrimidin-2-amine], at human FLAP, the Ki was found to be 11.7 nM. Besides, the IC50 in experiment [1] is 129 nM.

For the compound `Nc1cnc(-c2ccc(C3CCC3)c(Oc3ccnnc3)c2F)cn1` [Example 257, 5-(4-Cyclobutyl-2-fluoro-3-(pyridazin-4-yloxy)phenyl)pyrazin-2-amine], the inhibition constant Ki at human FLAP was found to be 31.1 nM. Besides, the IC50 in experiment [1] amounted to 332 nM.

As for `Nc1cnc(NCC(O)COc2c(C3CCC3)ccc(-c3cnc(N)cn3)c2F)nc1` (racemic) [Example 58, racemic 1-(3-(5-Aminopyrazin-2-yl)-6-cyclobutyl-2-fluorophenoxy)-3-((5-aminopyrimidin-2-yl)amino)propan-2-ol], at human FLAP, the inhibitory constant (Ki) stood at 30 nM. Further, the IC50 in experiment [1] amounted to 374 nM.

In the case of `Nc1cnc(-c2ccc(C3CCC3)c(OCc3cccc(-c4nnn[nH]4)c3)c2F)cn1` [Example 21, 5-(4-Cyclobutyl-2-fluoro-3-{[3-(1H-tetrazol-5-yl)benzyl]oxy}phenyl)pyrazin-2-amine], the Ki on human FLAP was 8 nM. Also, the concentration for half-maximal inhibition (IC50) in experiment [1] worked out at 4130 nM.

As to `CC(C)c1ccnc(Oc2c(C3CCC3)ccc(-c3cnc(N)cn3)c2F)n1` [Example 90, 5-(4-Cyclobutyl-2-fluoro-3-{[4-(1-methylethyl)pyrimidin-2-yl]oxy}phenyl)pyrazin-2-amine], the IC50 in experiment [1] is 53.8 nM.

On to `Nc1cnc(-c2ccc(C3CCC3)c(OCc3ccc(F)c(F)c3)c2F)cn1` [Example 33, 5-{4-Cyclobutyl-3-[(3,4-difluorobenzyl)oxy]-2-fluorophenyl}pyrazin-2-amine], for which, in experiment [1], the 50% inhibitory concentration (IC50) came out at 1410 nM.

On to `Nc1cnc(-c2ccc(C3CCC3)c(OCc3cc(S(F)(F)(F)(F)F)ccc3F)c2F)cn1` [Example 77, 5-(4-Cyclobutyl-2-fluoro-3-{[2-fluoro-5-(pentafluoro-lambda~6~- sulfanyl)benzyl]oxy}phenyl)pyrazin-2-amine], for which, in experiment [1], the IC50 turned out to be 1380 nM.

For the compound `COC(=O)c1ccc2oc(COc3c(C4CCC4)ccc(-c4cnc(N)cn4)c3F)nc2c1` [Example 274, Methyl 2-{[3-(5-aminopyrazin-2-yl)-6-cyclobutyl-2-fluorophenoxy]methyl}-1,3-benzoxazole-5-carboxylate], in experiment [1], the 50% inhibitory concentration (IC50) worked out at 160 nM.

For “2-[3-(Benzyloxy)-4-cyclobutyl-2- fluorophenyl]-5H-pyrrolo[2,3-b]pyrazine [Example 177]”, the IC50 in experiment [1] came to 771 nM.

Turning to `Nc1cnc(-c2ccc(C3CCC3)c(OCC(O)CNc3ncccn3)c2F)cn1` (racemic) [Example 56, racemic 1-(3-(5-Aminopyrazin-2-yl)-6-cyclobutyl-2-fluorophenoxy)-3-(pyrimidin-2-ylamino)propan-2-ol], the IC50 in experiment [1] amounted to 644 nM.

For `CCOC(=O)c1ccc(COc2c(C3CCC3)ccc(-c3cnc(N)cn3)c2F)o1` [Example 73, Ethyl 5-{[3-(5-aminopyrazin-2-yl)-6-cyclobutyl-2-fluorophenoxy]methyl}furan-2-carboxylate], in experiment [1], the concentration for half-maximal inhibition (IC50) is 1020 nM.

Consider `Nc1cnc(-c2ccc(C3CCC3)c(OCc3cc(Cl)ccc3Cl)c2F)cn1` [Example 38, 5-{4-Cyclobutyl-3-[(2,5-dichlorobenzyl)oxy]-2-fluorophenyl}pyrazin-2-amine], for which the IC50 in experiment [1] amounted to 736 nM.

For `CC(C)(C)c1ccc(-c2cnc(N)cn2)c(F)c1Oc1cc(N)ncn1` [Example 202, 6-[3-(5-Aminopyrazin-2-yl)-6-tert-butyl-2-fluorophenoxy]pyrimidin-4-amine], the IC50 in experiment [1] was determined as 80.5 nM.

Consider `N#Cc1ccc(Oc2c(C3CCC3)ccc(-c3cnc(N)cn3)c2F)nc1` [Example 114, 6-[3-(5-Aminopyrazin-2-yl)-6-cyclobutyl-2-fluorophenoxy]pyridine-3-carbonitrile], for which the half-maximal inhibitory concentration (IC50) in experiment [1] amounted to 375 nM.

On to `NC(=O)c1ccc(Oc2c(C3CCC3)ccc(-c3cnc(N)cn3)c2F)cc1` [Example 155, 4-[3-(5-Aminopyrazin-2-yl)-6-cyclobutyl-2-fluorophenoxy]benzamide], for which, in experiment [1], the IC50 was determined as 170 nM.

Consider `Nc1cnc(-c2ccc(C3CCCCC3)c(Oc3ncccn3)c2F)cn1` [Example 320, 5-(4-Cyclohexyl-2-fluoro-3-(pyrimidin-2-yloxy)phenyl)pyrazin-2-amine], for which, in experiment [1], the half-inhibitory concentration (IC50) is 167 nM.

As to `CS(=O)(=O)c1cccc(COc2c(C3CCC3)ccc(-c3cnc(N)cn3)c2F)c1` [Example 6, 5-(4-Cyclobutyl-2-fluoro-3-{[3-(methylsulfonyl)benzyl]oxy}phenyl)-pyrazin-2-amine], in experiment [1], the IC50 was 1220 nM.

As for `CC(C)(C)OC(=O)N1CCC(COc2c(C3CCC3)ccc(-c3cnc(N)cn3)c2F)C1` (stereo not drawn) [Example 247, tert-butyl 3-((3-(5-aminopyrazin-2-yl)-6-cyclobutyl-2-fluoro-phenoxy)methyl)pyrrolidine-1-carboxylate], the IC50 in experiment [1] was 417 nM.

As to `Nc1cnc(-c2ccc(C3CCC3)c(Oc3nc4ncccc4s3)c2F)cn1` [Example 330, 5-(4-Cyclobutyl-2-fluoro-3-(thiazolo[4,5-b]pyridin-2-yloxy)phenyl)pyrazin-2-amine], the IC50 in experiment [1] is > 1000 nM.

For the compound `Nc1cnc(-c2ccc(C3CCC3)c(OCc3nc(C4CC4)no3)c2F)cn1` [Example 48, 5-{4-Cyclobutyl-3-[(3-cyclopropyl-1,2,4-oxadiazol-5-yl)methoxy]-2-fluorophenyl}pyrazin-2-amine], the IC50 in experiment [1] was determined as 175 nM.

`N#Cc1cnn(CC(O)COc2c(C3CCC3)ccc(-c3cnc(N)cn3)c2F)c1N` (racemic) [Example 65, racemic 5-Amino-1-(3-(3-(5-aminopyrazin-2-yl)-6-cyclobutyl-2-fluorophenoxy)-2-hydroxypropyl)-1H-pyrazole-4-carbonitrile]: the concentration for half-maximal inhibition (IC50) in experiment [1] came to 107 nM.

In the case of `Nc1cnc(-c2ccc(C3CCC3)c(OCC(O)Cn3cccn3)c2F)cn1` (racemic) [Example 60, racemic 1-(3-(5-Aminopyrazin-2-yl)-6-cyclobutyl-2-fluorophenoxy)-3-(1H-pyrazol-1-yl)propan-2-ol], in experiment [1], the concentration for half-maximal inhibition (IC50) was 732 nM.

For the compound `CS(=O)(=O)c1ccc(Oc2c(C3CCC3)ccc(-c3cnc(N)cn3)c2F)cc1` [Example 116, 5-{4-Cyclobutyl-2-fluoro-3-[4-(methylsulfonyl)phenoxy]phenyl}pyrazin-2-amine], in experiment [1], the IC50 was determined as 503 nM.

As to `CC(C)c1nccc(Oc2c(C3CCC3)ccc(-c3cnc(N)cn3)c2F)n1` [Example 135, 5-(4-Cyclobutyl-2-fluoro-3-{[2-(1-methylethyl)pyrimidin-4-yl]oxy}phenyl)pyrazin-2-amine], in experiment [1], the IC50 amounted to 12.4 nM.

Take `CC(C)(C)OC(=O)COc1c(C2CCC2)ccc(-c2cnc(N)cn2)c1F` [Example 49, tert-Butyl [3-(5-aminopyrazin-2-yl)-6-cyclobutyl-2-fluorophenoxy]acetate]: the IC50 in experiment [1] is 1150 nM.

For the compound `Cc1nc(COc2c(C3CCC3)ccc(-c3cnc(N)cn3)c2F)no1` [Example 70, 5-{4-Cyclobutyl-2-fluoro-3-[(5-methyl-1,2,4-oxadiazol-3-yl)methoxy]phenyl}pyrazin-2-amine], the IC50 in experiment [1] is 413 nM.

Turning to `COC(=O)c1ccc(O)c(NC(=O)COc2c(C3CCC3)ccc(-c3cnc(N)cn3)c2F)c1` [Example 275, Methyl 3-({[3-(5-aminopyrazin-2-yl)-6-cyclobutyl-2-fluorophenoxy]acetyl}amino)-4-hydroxybenzoate], in experiment [1], the IC50 turned out to be 1960 nM.

In the case of `Nc1cnc(-c2ccc(C3CCC3)c(OCC(O)CNc3ccn[nH]3)c2F)cn1` (racemic) [Example 67, racemic 1-((1H-Pyrazol-5-yl)amino)-3-(3-(5-aminopyrazin-2-yl)-6-cyclobutyl-2-fluorophenoxy)propan-2-ol], in experiment [1], the half-maximal inhibitory concentration (IC50) turned out to be 727 nM.

For `N#Cc1nc(-c2ccc(C3CCC3)c(O)c2F)cnc1N` [Example 222, 3-amino-6-(4-cyclobutyl-2-fluoro-3-hydroxyphenyl)pyrazine-2-carbonitrile], the half-maximal inhibitory concentration (IC50) in experiment [1] amounted to 3480 nM.

`Nc1cnc(-c2ccc(C3CCC3)c(OCc3ccc(C(=O)O)o3)c2F)cn1` [Example 85, 5-{[3-(5-Aminopyrazin-2-yl)-6-cyclobutyl-2-fluorophenoxy]methyl}furan-2-carboxylic acid]: the IC50 in experiment [1] was 10000 nM.
